Columns and labels:
[1] = test system: Rho-A; assay: Ras GTP Binding Domain Inhibition Assay, Rho-A; details: at 20 μM; without SOS
How it was run: (§1)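 His-tagged GTPases, 10-30 μg/mL in Tris-HCl buffer (pH 7.4 or 7.0, MgCl2, DTT), were immobilised on nickel-coated wells overnight at 4° C. Compounds were added at 20 μM or as serial dilutions for IC50 in 1% DMSO for 3 h at room temperature, ±Sos(556-1049) in the final hour. Bound Cy3/Cy5-GTP (100 nM, 45 min) was read after washing.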

[2] = test system: IL-6; assay: Mouse IL6 Quantification Assay (LPS-stimulated RAW 264.7); assay type: cell-based; set-up: dose or concentration left out as unconfirmed; details: RAW264.7, ELISA, read-out: IL-6: % inh.
[3] = test system: KRas G12C mutant; assay: Ras GTP Binding Domain Inhibition Assay, KRas G12C mutant; details: at 20 μM; for KRas G12C mutant + SOS: % inh.: with SOS; for KRas G12C mutant: % inh.: without SOS
How it was run: as §1

[4] = test system: KRas wild type; assay: Ras GTP Binding Domain Inhibition Assay, KRas wild type; details: at 20 μM; for KRas wild type + SOS: % inh.: with SOS; for KRas wild type: % inh.: without SOS
How it was run: as §1

[5] = test system: KRas G12D mutant; assay: Ras GTP Binding Domain Inhibition Assay, KRas G12D mutant; details: at 20 μM; for KRas G12D mutant + SOS: % inh.: with SOS; for KRas G12D mutant: % inh.: without SOS
How it was run: as §1

[6] = test system: Smad2/3 phosphorylation; assay: Phospho-Smad2/3 Inhibition Assay in PANC-1; assay type: cell-based; details: Homo sapiens; 10 μM compound, 3 h; TGF-b1 stimulated PANC-1; western blot; read-out: % inh of Smad2/3 phosphorylation in PANC-1
Experimental: Cell lines: Human tumor-derived pancreatic cancer cell line Panc-1 and mouse muscle myoblast C2C12 were purchased from American Type Culture Collection and grown in complete DMEM-High Glucose, supplemented with penicillin (100 U/mL), streptomycin (100 μg/mL), and 10% heat-inactivated FBS at 37° C. in a humidified incubator with 5% CO2.
Method: Cells were plated at 350000 cells/well density in a 12-well plate, allowed 3 hours to adhere to the plate, then starved in the appropriate medium in the presence of 0.5% FBS overnight. The small molecules to be tested were added to the cells in the final concentration of 10 μM in the presence of 0.3% DMSO for 3 hours incubation at 37° C. For IC50 value determination, serial dilutions of compounds were added to cells under the same conditions. Next, Panc-1 cells were stimulated with 10 ng/ml TGF-b1 for 1 hour, and C2C12 cells were stimulated with 10 ng/ml TGF-b1 for 20 minutes (recombinant human TGF-b1, R&D Systems). After stimulation cells were lysed with lysis buffer containing 1% Triton X-100, EDTA, and Halt™ Protease & Phosphatase Inhibitor Cocktail (Thermo Scientific). Protein concentration was assessed by BCA protein assay (Thermo Scientific). Phosphorylation level of Smad2/Smad3 was determined by western blot.
Western blot protocol: Equal amounts of protein (15-50 μg) were separated by SDS-PAGE and transferred to nitrocellulose membranes (Invitrogen by Thermo Fisher Scientific). The membrane was stained with Ponceau S Stain (Boston BioProducts) to verify uniform protein loading. Membranes were blocked with 10% milk and phosphorylation levels of Smad2/Smad3 were assessed by incubating overnight at 4° C. with the following antibodies: Phospho-Smad2 (Ser465/467) and Phosph-Smad3 (Ser423/425), both from Cell Signaling Technology. Then the membranes were incubated with HRP-conjugated secondary antibody (Jackson Immunoresearch, West Grove, PA). Bands were incubated in Amersham ECL Prime Western Blotting Detection Reagent (GE Healthcare) and visualized using the ChemiDoc MP imaging system (Bio-Rad).

[7] = test system: TNFα; assay: Mouse TNF Alpha Quantification Assay (LPS-stimulated RAW 264.7); assay type: cell-based; set-up: dose or concentration left out as unconfirmed; details: RAW264.7, ELISA, read-out: TNFα: % inh.

Cc1c(-c2ccn(C(C)C)n2)sc2nc(-c3nccn3C)nc(NCC3CCCO3)c12 (racemic) [Compound 26, rac-6-(1-Isopropyl-1H-pyrazol-3-yl)-5-methyl-2-(1-methyl-1H-imidazol-2-yl)-N-((tetrahydrofuran-2-yl)methyl)thieno[2,3-d]pyrimidin-4-amine]
Rho-A: % inh. [1]: D (D = 76-100% inhibition) | inhibition [2]: 76 to 100% | KRas G12C mutant + SOS: % inh. [3]: D (D = 76-100% inhibition) | KRas G12C mutant: % inh. [3]: D (D = 76-100% inhibition) | KRas wild type + SOS: % inh. [4]: D (D = 76-100% inhibition) | KRas wild type: % inh. [4]: D (D = 76-100% inhibition) | KRas G12D mutant + SOS: % inh. ([5]; Table 7): C (C = 46-75% inhibition) | KRas G12D mutant + SOS: % inh. ([5]; Table 8): C (C = 46-75% inhibition) | KRas G12D mutant: % inh. ([5]; Table 7): D (D = 76-100% inhibition) | KRas G12D mutant: % inh. ([5]; Table 8): D (D = 76-100% inhibition) | inhibition at 10 µM [6]: 0% | inhibition [7]: 0%

Cc1c(-c2ccn(C(C)C)n2)sc2nc(-c3nccn3C)nc(NCCN3CCS(=O)(=O)CC3)c12 [Compound 23, 4-(2-((6-(1-Isopropyl-1H-pyrazol-3-yl)-5-methyl-2-(1-methyl-1H-imidazol-2-yl)thieno[2,3-d]pyrimidin-4-yl)amino)ethyl)thiomorpholine 1,1-dioxide]
Rho-A: % inh. [1]: C (C = 46-75% inhibition) | inhibition [2]: 46 to 75% | KRas G12C mutant + SOS: % inh. [3]: D (D = 76-100% inhibition) | KRas G12C mutant: % inh. [3]: C (C = 46-75% inhibition) | KRas wild type + SOS: % inh. [4]: D (D = 76-100% inhibition) | KRas wild type: % inh. [4]: D (D = 76-100% inhibition) | KRas G12D mutant + SOS: % inh. ([5]; Table 7): D (D = 76-100% inhibition) | KRas G12D mutant + SOS: % inh. ([5]; Table 8): D (D = 76-100% inhibition) | KRas G12D mutant: % inh. ([5]; Table 7): D (D = 76-100% inhibition) | KRas G12D mutant: % inh. ([5]; Table 8): D (D = 76-100% inhibition) | inhibition at 10 µM [6]: 0% | inhibition [7]: 0%

Cc1c(-c2ccn(C(C)C)n2)sc2nc(-c3nccn3C)nc(NCCN3CCOCC3)c12 [Compound 22, 6-(1-Isopropyl-1H-pyrazol-3-yl)-5-methyl-2-(1-methyl-1H-imidazol-2-yl)-N-(2-morpholinoethyl)thieno[2,3-d]pyrimidin-4-amine]
Rho-A: % inh. [1]: D (D = 76-100% inhibition) | inhibition [2]: 76 to 100% | KRas G12C mutant + SOS: % inh. [3]: D (D = 76-100% inhibition) | KRas G12C mutant: % inh. [3]: D (D = 76-100% inhibition) | KRas wild type + SOS: % inh. [4]: D (D = 76-100% inhibition) | KRas wild type: % inh. [4]: D (D = 76-100% inhibition) | KRas G12D mutant + SOS: % inh. ([5]; Table 7): D (D = 76-100% inhibition) | KRas G12D mutant + SOS: % inh. ([5]; Table 8): D (D = 76-100% inhibition) | KRas G12D mutant: % inh. ([5]; Table 7): D (D = 76-100% inhibition) | KRas G12D mutant: % inh. ([5]; Table 8): D (D = 76-100% inhibition) | inhibition at 10 µM [6]: 0% | inhibition [7]: 1 to 25%

COc1cccc(-c2sc3nc(-c4nccn4C)nc(N[C@H]4C[C@H](OC)C4)c3c2-c2ccccc2)c1F [Compound 40, 6-(2-Fluoro-3-methoxyphenyl)-N-((1r,3r)-3-methoxycyclobutyl)-2-(1-methyl-1H-imidazol-2-yl)-5-phenylthieno[2,3-d]pyrimidin-4-amine]
Rho-A: % inh. [1]: B (B = 26-45% inhibition) | inhibition [2]: 76 to 100% | KRas G12C mutant + SOS: % inh. [3]: D (D = 76-100% inhibition) | KRas G12C mutant: % inh. [3]: C (C = 46-75% inhibition) | KRas wild type + SOS: % inh. [4]: D (D = 76-100% inhibition) | KRas wild type: % inh. [4]: C (C = 46-75% inhibition) | KRas G12D mutant + SOS: % inh. ([5]; Table 7): D (D = 76-100% inhibition) | KRas G12D mutant + SOS: % inh. ([5]; Table 8): D (D = 76-100% inhibition) | KRas G12D mutant: % inh. ([5]; Table 7): C (C = 46-75% inhibition) | KRas G12D mutant: % inh. ([5]; Table 8): C (C = 46-75% inhibition) | inhibition at 10 µM [6]: 76 to 100% | inhibition [7]: 76 to 100%

COCCn1c(-c2nccn2C)nc2sc(-c3ccn(C(C)C)n3)c(C)c2c1=O [Compound 29, 6-(1-Isopropyl-1H-pyrazol-3-yl)-3-(2-methoxyethyl)-5-methyl-2-(1-methyl-1H-imidazol-2-yl)thieno[2,3-d]pyrimidin-4(3H)-one]
Rho-A: % inh. [1]: D (D = 76-100% inhibition) | inhibition [2]: 76 to 100% | KRas G12C mutant + SOS: % inh. [3]: D (D = 76-100% inhibition) | KRas G12C mutant: % inh. [3]: C (C = 46-75% inhibition) | KRas wild type + SOS: % inh. [4]: D (D = 76-100% inhibition) | KRas wild type: % inh. [4]: D (D = 76-100% inhibition) | KRas G12D mutant + SOS: % inh. ([5]; Table 7): C (C = 46-75% inhibition) | KRas G12D mutant + SOS: % inh. ([5]; Table 8): C (C = 46-75% inhibition) | KRas G12D mutant: % inh. ([5]; Table 7): C (C = 46-75% inhibition) | KRas G12D mutant: % inh. ([5]; Table 8): C (C = 46-75% inhibition) | inhibition at 10 µM [6]: 0% | inhibition [7]: 76 to 100%

Cc1c(-c2ccn(C(C)C)n2)sc2nc(-c3nccn3C)nc(NCC3COCCN3C)c12 (racemic) [Compound 24, rac-6-(1-Isopropyl-1H-pyrazol-3-yl)-5-methyl-2-(1-methyl-1H-imidazol-2-yl)-N-((4-methylmorpholin-3-yl)methyl)thieno[2,3-d]pyrimidin-4-amine]
Rho-A: % inh. [1]: C (C = 46-75% inhibition) | inhibition [2]: 76 to 100% | KRas G12C mutant + SOS: % inh. [3]: D (D = 76-100% inhibition) | KRas G12C mutant: % inh. [3]: C (C = 46-75% inhibition) | KRas wild type + SOS: % inh. [4]: D (D = 76-100% inhibition) | KRas wild type: % inh. [4]: B (B = 26-45% inhibition) | KRas G12D mutant + SOS: % inh. ([5]; Table 7): D (D = 76-100% inhibition) | KRas G12D mutant + SOS: % inh. ([5]; Table 8): D (D = 76-100% inhibition) | KRas G12D mutant: % inh. ([5]; Table 7): C (C = 46-75% inhibition) | KRas G12D mutant: % inh. ([5]; Table 8): C (C = 46-75% inhibition) | inhibition at 10 µM [6]: 0% | inhibition [7]: 1 to 25%

COCCCOc1nc(-c2nccn2C)nc2sc(-c3ccn(C(C)C)n3)c(C)c12 [Compound 32, 6-(1-Isopropyl-1H-pyrazol-3-yl)-4-(3-methoxypropoxy)-5-methyl-2-(1-methyl-1H-imidazol-2-yl)thieno[2,3-d]pyrimidine]
Rho-A: % inh. [1]: D (D = 76-100% inhibition) | inhibition [2]: 76 to 100% | KRas G12C mutant + SOS: % inh. [3]: C (C = 46-75% inhibition) | KRas G12C mutant: % inh. [3]: C (C = 46-75% inhibition) | KRas wild type + SOS: % inh. [4]: D (D = 76-100% inhibition) | KRas wild type: % inh. [4]: D (D = 76-100% inhibition) | KRas G12D mutant + SOS: % inh. ([5]; Table 7): C (C = 46-75% inhibition) | KRas G12D mutant + SOS: % inh. ([5]; Table 8): C (C = 46-75% inhibition) | KRas G12D mutant: % inh. ([5]; Table 7): C (C = 46-75% inhibition) | KRas G12D mutant: % inh. ([5]; Table 8): C (C = 46-75% inhibition) | inhibition at 10 µM [6]: 0% | inhibition [7]: 76 to 100%

COCCCOc1nc(-c2nccn2C)nc2sc(-c3ccn(C(C)C)n3)c(-c3ccccc3)c12 [Compound 37, 6-(1-Isopropyl-1H-pyrazol-3-yl)-4-(3-methoxypropoxy)-2-(1-methyl-1H-imidazol-2-yl)-5-phenylthieno[2,3-d]pyrimidine]
Rho-A: % inh. [1]: 0 (0 = 0% inhibition) | inhibition [2]: 76 to 100% | KRas G12C mutant + SOS: % inh. [3]: 0 (0 = 0% inhibition) | KRas G12C mutant: % inh. [3]: 0 (0 = 0% inhibition) | KRas wild type + SOS: % inh. [4]: A (A = 1-25% inhibition) | KRas wild type: % inh. [4]: 0 (0 = 0% inhibition) | KRas G12D mutant + SOS: % inh. ([5]; Table 7): 0 (0 = 0% inhibition) | KRas G12D mutant + SOS: % inh. ([5]; Table 8): 0 (0 = 0% inhibition) | KRas G12D mutant: % inh. ([5]; Table 7): 0 (0 = 0% inhibition) | KRas G12D mutant: % inh. ([5]; Table 8): 0 (0 = 0% inhibition) | inhibition at 10 µM [6]: 0% | inhibition [7]: 0%

Reference: patent US20240309015A1, “Methods for the Treatment of Fibrotic Disease” (SHY Therapeutics, LLC, priority 2021, published 2024)
